# Test results reported in patent US10947129B2, “Fluid disinfection with ultraviolet radiation and a chemical disinfectant” (Trojan Technologies, priority 2015, dated 2021).
# “Also recorded” adds a separate entry of the source.
# Key:
# [1] = PAA demand/decay in WWTP secondary effluent (Equation 1 fit); type: physicochemical; conditions: for Decay (k, 1/min) / Demand (D, mg/L): PAA only disinfection
# Protocol: (§1) In this study, secondary effluent samples were collected and treated with PAA to achieve residual concentration*contact time (CTs) of 2.5-50 mg·min/L. PAA tests were conducted in clean glass beakers (500 or 2000 mL), and mixed continuously using a magnetic stirrer (600 rpm). Measurements of PAA residuals were collected over time, and E. coli samples were collected following PAA quenching using sodium bisulfite. The four samples collected between September 22-24 were each treated with PAA (CO=5.0 mg/L) in order to estimate the demand/decay for each sample. […] The demand/decay kinetic parameters were recalculated using the experimental results from each inactivation experiment.
# PAA residuals were fitted to a demand/decay curve using Equation 1. The PAA CT (mg·min/L) was determined by integrating the area under the demand/decay curve and is calculated using Equation 2. C=(C0−D)e^−kt [Equation 1] where, • C is the concentration of PAA (mg/L) at time t (min) • C0 is initial concentration of PAA (mg/L) • D is the instantaneous demand of PAA (mg/L) • k is the decay rate constant of PAA (1/min) • t is the contact time (min)
# [2] = test system: E. coli; assay: E. coli inactivation by PAA alone in WWTP secondary effluent (bench test); type: cell-based, Escherichia coli
# Protocol: as §1
# [formula] where, • CT is the integral PAA dose (concentration*contact time); mg·min/L (Santoro et al., 2015) PAA and UV Disinfection Kinetics
# To develop an disinfection kinetic model, the concentration of viable for E. coli can be plotted against either PAA—CT dose or UV fluence and the data fitted using the double exponential inactivation model, described in Equation 3. […]
# The E. coli inactivation kinetics by PAA was calculated for each sample by plotting the viable concentration of E. coli on a log scale (y-axis) against the PAA—CT dose (x-axis), and is shown in FIG. 11. […]
# [3] = test system: E. coli; assay: Combined UV and PAA disinfection tests on WWTP secondary effluent; type: cell-based, Escherichia coli
# Source text: For the UV+PAA experiment, effluent was first irradiated to UV fluences of 10, 15 or 20 mJ/cm^2, then dosed with PAA as described above. For the PAA+UV experiment, effluent was first dosed with PAA as described above. After set durations, portions of the sample were removed, PAA quenched with sodium bisulfite, and then subjected to UV fluences of 10, 15 or 20 mJ/cm^2. For the simultaneous PAA+UV experiment, two different scenarios were investigated. The first involved dosing PAA at the onset of UV irradiation, irradiating for a set duration, and then removing the sample from UV exposure and continuing to stir until a desired PAA contact time was achieved. The second scenario involved first dosing PAA and allowing it to stir for a period prior to subjecting it to UV irradiation.
# Three distinct scenarios were performed with respect to testing the combined UV and PAA disinfection processes: UV prior to PAA (UV→PAA), PAA prior to UV (PAA→UV), simultaneous UV and PAA (UV+PAA). For the UV→PAA tests, UV fluences of 10, 15, and 20 mJ/cm^2 were applied prior to PAA addition, and PAA CTs ranged from 5-25 mg·min/L. Each of FIGS. 14-26 illustrates the results for viable E. coli as a function of PAA CT exposure with different levels of UV fluence applied, prior to PAA treatment.
# [4] = test system: total coliform; conditions: cited from earlier work
# [5] = low UV fluence (13 mJ/cm^2), PAA added before or after UV irradiation; cited from earlier work
smiles,measurement,setting,value
"CC(=O)OO [PAA, peracetic acid]","Decay (k, 1/min)",[1]; sample Sept. 22 - AM,0.063 min⁻¹
same,"Demand (D, mg/L)",[1]; sample Sept. 22 - AM,3.58 mg/L
same,"Decay (k, 1/min)",[1]; sample Sept. 22 - PM,0.057 min⁻¹
same,"Demand (D, mg/L)",[1]; sample Sept. 22 - PM,2.60 mg/L
same,"Decay (k, 1/min)",[1]; sample Sept. 24 - AM,0.056 min⁻¹
same,"Demand (D, mg/L)",[1]; sample Sept. 24 - AM,3.50 mg/L
same,"Decay (k, 1/min)",[1]; sample Sept. 24 - PM,0.058 min⁻¹
same,"Demand (D, mg/L)",[1]; sample Sept. 24 - PM,2.91 mg/L
same,decay rates,[1]; all samples,ca. 0.060 l/min
same,PAA demand,[1]; samples collected in the afternoon,ca. 2.75 mg/L
same,PAA demand,[1]; samples collected in the morning,ca. 3.5 mg/L
same,PAA CT dose required to meet disinfection target,"[2]; target 63 MPN/100 mL (half the 30-day geomean permit), model from all data",49.2 mg·min/L
same,PAA CT dose required to meet disinfection target,"[2]; target 244 MPN/100 mL (half the daily maximum permit), model from poorest inactivation data",36.0 mg·min/L
same,attainment of E. coli disinfection targets,"[3]; PAA prior to UV (PAA→UV), PAA CT 10-23 mg·min/L, UV 10, 15, 20 mJ/cm^2",did NOT always result in the geometric mean or maximum disinfection targets being met
same,attainment of E. coli disinfection targets,"[3]; UV prior to PAA (UV→PAA), UV 10, 15, 20 mJ/cm^2, PAA CT 5-25 mg·min/L",both the maximum and geometric mean disinfection targets being met for at least one combination of fluence and CT; also recorded: consistently met disinfection targets
same,attainment of E. coli disinfection targets,"[3]; simultaneous UV+PAA, UV 10, 15, 20 mJ/cm^2, PAA CT 15-30 mg·min/L",could not achieve the geomean or maximum disinfection targets
same,inactivation of total coliform,[4]; PAA 2 mg/L applied immediately before UV fluence of 192 mJ/cm^2,over 4 log
same,attainment of target disinfection levels,"[4]; PAA concentration between 2 and 8 mg/L, alone",unable to reach the target disinfection levels
same,synergistic benefit of PAA combined with UV,[5],no synergistic benefit observed
